Experimental data taken from patent US6818445B2 (Synaptic Pharmaceutical Corporation, priority 1994, dated 2004).
Where “and” joins values, the source holds several entries; their conditions need not be identical. Identical values can stand only once. Counter-ions that a name gives are not always drawn. Like-named read-outs stand apart in the source and are kept apart here.

Columns and labels:
human 5HT1E receptor = human 5HT1E receptor (Homo sapiens, UniProt P28566); assay: Binding to human 5HT1E receptor, [3H]serotonin
human 5HT1Dβ receptor = human 5HT1Dβ receptor (Homo sapiens, UniProt P28222); assay: Binding to human 5HT1Dβ receptor, [3H]serotonin; conditions: cloned human receptor; read-out: Receptor (pKi) 5HT1Dβ (converted)
[1] = tested on: NPY-induced feeding behavior in satiated rats; assay: NPY-induced food intake in satiated rats; type: in vivo, rat; conditions: for Food intake (g) mean ± S.E.M., NPY + compound: compound 10 mg/kg i.p., then 300 pmole NPY i.c.v., 4 hours after NPY
human 5HT1F receptor = biological target: T1, human 5HT1F receptor (Homo sapiens, UniProt P30939); assay: Binding to human 5HT1F receptor, [3H]serotonin
T1 sequence (P30939 1-366): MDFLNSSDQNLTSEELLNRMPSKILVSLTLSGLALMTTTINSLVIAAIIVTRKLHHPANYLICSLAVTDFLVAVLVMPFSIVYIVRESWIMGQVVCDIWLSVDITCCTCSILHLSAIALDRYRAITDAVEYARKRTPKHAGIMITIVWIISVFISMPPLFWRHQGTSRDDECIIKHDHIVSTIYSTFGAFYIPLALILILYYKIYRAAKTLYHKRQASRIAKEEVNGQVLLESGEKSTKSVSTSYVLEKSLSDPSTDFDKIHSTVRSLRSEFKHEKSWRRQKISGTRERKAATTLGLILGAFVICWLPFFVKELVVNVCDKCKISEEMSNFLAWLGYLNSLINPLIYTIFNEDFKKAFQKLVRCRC

[2] = tested on: food intake of 24 h food-deprived rats; assay: Food intake in food-deprived rats; type: in vivo, rat; conditions: 30 mg/kg i.p. after 24 h food deprivation, percentage of intake compared to control rats
human 5HT1Dα receptor = human 5HT1Dα receptor (Homo sapiens, UniProt P28221); assay: Binding to human 5HT1Dα receptor, [3H]serotonin
human α2C receptor = biological target: T2, human α2C receptor (Homo sapiens, UniProt P18825); assay: Binding to cloned human α2C adrenergic receptor, [3H]rauwolscine
T2 sequence (P18825 1-462): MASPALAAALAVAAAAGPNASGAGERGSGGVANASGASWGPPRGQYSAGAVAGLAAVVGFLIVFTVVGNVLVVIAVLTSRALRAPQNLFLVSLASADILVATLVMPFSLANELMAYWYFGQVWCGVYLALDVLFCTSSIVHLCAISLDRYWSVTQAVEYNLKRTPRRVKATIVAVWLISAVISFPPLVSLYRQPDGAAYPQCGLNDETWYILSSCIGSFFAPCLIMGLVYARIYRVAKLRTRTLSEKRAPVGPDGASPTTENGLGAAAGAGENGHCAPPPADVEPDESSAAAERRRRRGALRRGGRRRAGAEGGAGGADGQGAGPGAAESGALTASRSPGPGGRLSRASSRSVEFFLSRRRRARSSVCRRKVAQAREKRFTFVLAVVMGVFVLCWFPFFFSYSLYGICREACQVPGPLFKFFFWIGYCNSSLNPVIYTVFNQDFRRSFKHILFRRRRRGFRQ

human Y1 receptor = biological target: T3, human Y1 receptor (Homo sapiens, UniProt P25929); conditions: read-out: Binding Affinity (Ki (nM) vs. ^125I-PYY) Human Receptor Y1; Table 14
T3 sequence (P25929 1-384): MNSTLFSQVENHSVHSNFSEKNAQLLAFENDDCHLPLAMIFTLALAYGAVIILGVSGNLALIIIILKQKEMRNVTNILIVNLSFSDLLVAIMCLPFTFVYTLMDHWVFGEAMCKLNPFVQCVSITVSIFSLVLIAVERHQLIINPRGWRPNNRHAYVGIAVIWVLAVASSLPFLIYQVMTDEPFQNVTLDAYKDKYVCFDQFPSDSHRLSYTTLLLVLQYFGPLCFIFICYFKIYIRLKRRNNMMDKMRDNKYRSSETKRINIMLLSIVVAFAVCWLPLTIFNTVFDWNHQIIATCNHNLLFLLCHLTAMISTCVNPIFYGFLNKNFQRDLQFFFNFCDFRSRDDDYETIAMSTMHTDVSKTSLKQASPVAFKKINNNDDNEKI

human Y4 receptor = human Y4 receptor (Homo sapiens, UniProt P50391); type: binding; conditions: Table 14
human Y2 receptor = biological target: T4, human Y2 receptor (Homo sapiens, UniProt P49146); type: binding; conditions: Table 14
T4 sequence (P49146 1-381): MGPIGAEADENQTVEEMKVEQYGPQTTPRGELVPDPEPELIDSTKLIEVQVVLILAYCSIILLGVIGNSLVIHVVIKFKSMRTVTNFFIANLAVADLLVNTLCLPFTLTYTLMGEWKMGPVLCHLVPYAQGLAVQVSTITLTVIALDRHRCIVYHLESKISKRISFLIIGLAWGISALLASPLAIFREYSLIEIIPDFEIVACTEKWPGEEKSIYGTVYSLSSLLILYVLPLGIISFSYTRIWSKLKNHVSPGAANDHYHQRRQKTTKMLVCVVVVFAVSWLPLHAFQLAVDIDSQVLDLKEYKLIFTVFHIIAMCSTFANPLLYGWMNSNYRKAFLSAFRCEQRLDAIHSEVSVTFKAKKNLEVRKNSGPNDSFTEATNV

[3] = read-out: Binding Affinity (Ki (nM) vs. ^125I-PYY) Human Receptor Y4
[4] = read-out: Binding Affinity (Ki (nM) vs. ^125I-PYY) Human Receptor Y2

Sequence of human 5HT1Dβ receptor (P28222 whole entry): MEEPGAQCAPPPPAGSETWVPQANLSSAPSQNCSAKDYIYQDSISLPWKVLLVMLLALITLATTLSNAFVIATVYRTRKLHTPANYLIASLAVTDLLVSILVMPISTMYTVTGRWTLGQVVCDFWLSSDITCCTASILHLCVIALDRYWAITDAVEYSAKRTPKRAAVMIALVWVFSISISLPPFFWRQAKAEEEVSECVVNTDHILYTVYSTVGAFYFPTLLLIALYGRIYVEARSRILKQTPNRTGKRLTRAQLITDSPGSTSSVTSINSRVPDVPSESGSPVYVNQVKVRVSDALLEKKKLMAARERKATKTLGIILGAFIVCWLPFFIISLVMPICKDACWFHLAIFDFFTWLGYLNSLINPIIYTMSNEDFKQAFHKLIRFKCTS
Sequence of human 5HT1E receptor (P28566 whole entry): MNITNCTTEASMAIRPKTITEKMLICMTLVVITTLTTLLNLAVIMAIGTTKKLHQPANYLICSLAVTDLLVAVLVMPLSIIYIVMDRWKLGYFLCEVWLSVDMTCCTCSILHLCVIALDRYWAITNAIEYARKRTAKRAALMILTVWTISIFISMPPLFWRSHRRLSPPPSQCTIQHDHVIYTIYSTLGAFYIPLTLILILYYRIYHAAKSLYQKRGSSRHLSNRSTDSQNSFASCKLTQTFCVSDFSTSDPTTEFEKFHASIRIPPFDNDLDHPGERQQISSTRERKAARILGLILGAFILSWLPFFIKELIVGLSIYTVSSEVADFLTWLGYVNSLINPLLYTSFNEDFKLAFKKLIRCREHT
Sequence of human 5HT1Dα receptor (P28221 whole entry): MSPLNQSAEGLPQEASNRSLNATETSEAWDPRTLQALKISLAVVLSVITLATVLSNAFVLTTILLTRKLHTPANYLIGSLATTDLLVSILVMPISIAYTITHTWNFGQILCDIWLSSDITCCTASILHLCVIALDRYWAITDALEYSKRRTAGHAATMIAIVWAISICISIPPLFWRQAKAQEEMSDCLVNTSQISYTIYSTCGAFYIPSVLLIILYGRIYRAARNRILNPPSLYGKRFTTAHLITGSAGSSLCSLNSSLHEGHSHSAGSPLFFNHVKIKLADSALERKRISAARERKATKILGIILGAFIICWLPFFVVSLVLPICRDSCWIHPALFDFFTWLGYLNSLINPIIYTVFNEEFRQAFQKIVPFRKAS
Sequence of human Y4 receptor (P50391 whole entry): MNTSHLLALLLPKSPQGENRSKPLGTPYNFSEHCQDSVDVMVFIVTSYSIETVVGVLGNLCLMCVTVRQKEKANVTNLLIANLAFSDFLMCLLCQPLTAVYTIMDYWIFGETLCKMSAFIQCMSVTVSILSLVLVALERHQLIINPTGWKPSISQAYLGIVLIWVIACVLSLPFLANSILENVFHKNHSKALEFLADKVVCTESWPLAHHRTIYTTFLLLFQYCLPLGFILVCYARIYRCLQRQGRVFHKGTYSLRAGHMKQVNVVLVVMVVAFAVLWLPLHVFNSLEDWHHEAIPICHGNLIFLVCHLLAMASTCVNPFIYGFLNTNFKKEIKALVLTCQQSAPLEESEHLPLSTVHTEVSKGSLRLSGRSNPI

Row | Ki (human 5HT1E receptor) | Ki (human 5HT1Dβ receptor) | Ki (human 5HT1F receptor) | Compound | Two-hour food intake of food-deprived rats, Mean (%) [2] | further results
1 | ≥ 5.01 µM | ≥ 5.01 µM | ≥ 5.01 µM | Cl.c1ccc(Nc2nc(Nc3ccccc3)c3ccccc3n2)cc1 [Compound 1, 2,4-Diphenylamino-quinazoline Hydrochloride] | 34% | Food intake (g) mean ± S.E.M., NPY + compound [1]: 4.6 ± 0.6 g
2 | – | – | – | Nc1nc(NCCCCCCNS(=O)(=O)c2cccc3ccccc23)nc2ccccc12 [Compound 2, Naphthalene-1-sulfonic Acid [6-(4-amino-quinazolin-2-ylamino)-hexyl]-amide] | 42% | –
3 | ≥ 5.01 µM | – | ≥ 5.01 µM | Cl.Nc1nc(NC[C@H]2CC[C@H](CNS(=O)(=O)c3cccc4ccccc34)CC2)nc2ccccc12 [Compound 5, trans-Naphthalene-1-sulfonic Acid {4-[(4-amino-quinazolin-2-ylamino)-methyl]-cyclohexylmethyl}-amide Hydrochloride] | – | Food intake (g) mean ± S.E.M., NPY + compound [1]: 4.1 ± 0.4 g
4 | ≥ 5.01 µM | ≥ 5.01 µM | ≥ 5.01 µM | c1ccc(Nc2nc(Nc3ccc(N4CCCCC4)cc3)nc3ccccc23)cc1 [Compound 6, 2-[4-(Piperidin-1-yl)-phenylaminol-4-phenylamino-quinazoline Dihydrochloride] | 38% | Ki (human 5HT1Dα receptor): ≥ 5.01 µM; Receptor (pKi) α2c (human α2C receptor): 6.35
5 | ≥ 5.01 µM | ≥ 5.01 µM | ≥ 5.01 µM | COc1ccc(Nc2nc(Nc3ccccc3)c3cccc(OC)c3n2)cc1.Cl [Compound 9, 8-Methoxy-2-(4-methoxy-phenylamino)-4-phenylamino-quinazoline Hydrochloride] | 40% | Ki (human 5HT1Dα receptor): ≥ 5.01 µM
6 | ≥ 5.01 µM | ≥ 5.01 µM | ≥ 5.01 µM | CNS(=O)(=O)Cc1ccc(Nc2nc(Nc3ccccc3)c3cc(OC)ccc3n2)cc1.Cl [Compound 10, N-Methyl-[4-(6-methoxy-4-phenylamino-quinazolin-2-ylamino)-phenyl]-methanesulfonamide Hydrochloride] | 74% | Ki (human 5HT1Dα receptor): ≥ 5.01 µM
7 | ≥ 5.01 µM | ≥ 5.01 µM | ≥ 5.01 µM | CNS(=O)(=O)Cc1ccc(Nc2nc(Nc3ccccc3)c3ccccc3n2)cc1.Cl [Compound 11, N-Methyl-[4-(4-phenylamino-quinazolin-2-ylamino)-phenyl]-methanesulfonamide Hydrochloride] | 15% | Ki (human 5HT1Dα receptor): ≥ 5.01 µM
8 | – | – | – | Cl.O=S(=O)(NC[C@H]1CC[C@H](CNCC2CCc3ccccc3C2)CC1)c1ccc2ccccc2c1 (some centres unmarked) [Compound 17] | 27% | Food intake (g) mean ± S.E.M., NPY + compound [1]: 3.8 ± 0.4 g
9 | – | – | – | Cl.O=S(=O)(NCC1CCC(CNCc2ccc3ccccc3c2)CC1)c1ccccc1C(F)(F)F (centres unmarked) [Compound 21] | 80% | Ki (human Y1 receptor): 13000 nM; Ki (human Y4 receptor; [3]): 18500 nM; Ki (human Y2 receptor; [4]): 1610 nM
10 | – | – | – | Cl.O=S(=O)(NCC1CCC(CNCc2cccc3ccccc23)CC1)c1ccccc1C(F)(F)F (centres unmarked) [Compound 23] | 58% | Ki (human Y1 receptor): 14500 nM; Ki (human Y4 receptor; [3]): 21500 nM; Ki (human Y2 receptor; [4]): 617 nM
11 | – | – | – | Cl.Cl.O=[N+]([O-])c1ccccc1S(=O)(=O)NCC1CCC(CNCc2ccc3ccccc3n2)CC1 (centres unmarked) [Compound 26] | 73% | Ki (human Y1 receptor): 23700 nM; Ki (human Y4 receptor; [3]): 19300 nM; Ki (human Y2 receptor; [4]): 58200 nM
12 | – | – | – | NPY: neuropeptide Y, species not given (Table 1, cited text); in Table 15 300 pmole porcine NPY i.c.v. [reference compound] | – | Food intake (g) mean ± S.E.M., NPY ([1]; 300 pmole NPY i.c.v. alone, cumulative intake 4 hours after NPY, one value per compound experiment): 7.4 ± 0.5 g and 6.8 ± 1.0 g and 5.8 ± 0.5 g and 4.9 ± 0.4 g

Row | Compound | Ki (human 5HT1E receptor) | Ki (human 5HT1Dβ receptor) | Ki (human 5HT1F receptor) | Two-hour food intake of food-deprived rats, Mean (%) [2] | further results
13 | CC(=O)O[C@H]1CC[C@H](Nc2nc(Nc3ccccc3)c3ccccc3n2)CC1 [Compound 7, trans-2-(4-Acetoxy-cvclohexylamino)-4-phenylamino-quinazoline Hydrochloride] | ≥ 5.01 µM | ≥ 5.01 µM | ≥ 5.01 µM | – | –
14 | O=S(=O)(NC[C@H]1CC[C@H](CNC(CO)Cc2ccc(Cl)cc2)CC1)c1cccc2ccccc12 (some centres unmarked) [Compound 25] | ≥ 5.01 µM | – | ≥ 5.01 µM | 32% | Ki (human Y4 receptor): 13100 nM; Ki (human Y2 receptor): 851 nM
